In patent US20080241263A1, “Oral and/or Topical Compositions Comprising Prebiotics and Sterols” (priority 2004, published 2008):

Assays:
Bifidobacterium = assay: Stimulation of growth: enumeration of bifidobacterium in vitro in human faecal homogenate / WC broth; format: cell-based, Bifidobacterium spp; conditions: incubated up to 24 hours
Procedure: (§1) The stimulation of growth of micro-organisms has been studied by enumerating bifidobacterium and lactobacilli in vitro in the presence of various test substances. More specifically, aliquots (1 mL) of human faecal homogenates (10 g per 100 mL diluent) were added to diluted WC broth (diluted 50:50 with 0.05M phosphate buffer) to which were added the test mixtures and a lactobacillus or bifidobacterium strain. For each of the combinations, parallel tubes were prepared with one set being inoculated with Bifidobacterium spp or Lactobacillus spp. All mixtures were then incubated for up to 24 hours and bacterial numbers enumerated.

Lactobacterium = assay: Stimulation of growth: enumeration of lactobacilli in vitro in human faecal homogenate / WC broth; format: cell-based, Lactobacillus spp; conditions: incubated up to 24 hours
Procedure: as §1

| Molecule | Bacterial numbers (CFU/ml) (Bifidobacterium; 1% test substance/mixture) | Bacterial numbers (CFU/ml) (Lactobacterium; 1% test substance/mixture) | Bacterial numbers (CFU/ml) (Bifidobacterium; 1% test substance) | Bacterial numbers (CFU/ml) (Lactobacterium; 1% test substance) |
| --- | --- | --- | --- | --- |
| OC[C@H]1O[C@@H](O[C@H]2[C@H](O)[C@@H](O)[C@@H](O[C@]3(CO)O[C@H](CO)[C@@H](O)[C@@H]3O)O[C@@H]2CO)[C@H](O)[C@@H](O)[C@H]1O [C2, Lactosucrose] | 1.1 × 10^7 CFU/ml | 1.1 × 10^6 CFU/ml | – | – |
| CCCCCCCCCCCCCCCC(=O)O[C@H]1CC[C@@]2(C)C(=CC[C@H]3[C@@H]4CC[C@H]([C@H](C)CC[C@@H](CC)C(C)C)[C@@]4(C)CC[C@@H]32)C1 [C7, β-Sitosterolpalmitate] | – | – | 2.7 × 10^6 CFU/ml | 4.4 × 10^5 CFU/ml |
| CC[C@H](CC[C@@H](C)[C@H]1CC[C@H]2[C@@H]3CC=C4C[C@@H](O)CC[C@]4(C)[C@H]3CC[C@]12C)C(C)C [C5, β-Sitosterol] | – | – | 3.3 × 10^6 CFU/ml | 4.4 × 10^5 CFU/ml |
| Betaglucan [C4] | 1.2 × 10^7 CFU/ml | 1.1 × 10^6 CFU/ml | – | – |
| CCCCCCCCCCCCCCCCCC(=O)O[C@H]1CC[C@@]2(C)[C@@H](CC[C@@H]3[C@@H]2CC[C@]2(C)[C@@H]([C@H](C)CC[C@@H](CC)C(C)C)CC[C@@H]32)C1 [C8, β-Sitostanolstearate] | – | – | 3.2 × 10^6 CFU/ml | 4.5 × 10^5 CFU/ml |
| Lactolin [C3] | 1.6 × 10^7 CFU/ml | 1.5 × 10^6 CFU/ml | – | – |
| CC[C@H](CC[C@@H](C)[C@H]1CC[C@H]2[C@@H]3CC[C@H]4C[C@@H](O)CC[C@]4(C)[C@H]3CC[C@]12C)C(C)C [C6, β-Sitostanol] | – | – | 2.4 × 10^6 CFU/ml | 4.4 × 10^5 CFU/ml |
